Data set [1] in a line: Antiproliferative activity against human QSG7701 cells incubated for 24 hrs by alamar blue assay. It counts as functional, cell-based. The conditions noted are these: QSG7701, 24 h. On the technique in general: The colour change of resazurin is a common sign of viable cells or microbes.
Data set [2] relates to SK-HEP1. Nature of the data set: Antiproliferative activity against human SK-HEP1 cells incubated for 24 hrs by alamar blue assay. It counts as functional, cell-based. The conditions noted are these: SK-HEP1, 24 h.
Data set [3] has as its system HeLa. Nature of the data set: Antiproliferative activity against human HeLa cells assessed as increase in miR-21 biogenesis level measured after 24 hrs by luciferase assay. The data set is classed as functional, cell-based.
Data set [4] relates to SK-HEP1. The experiment in a line: Antiproliferative activity against human SK-HEP1 cells assessed as decrease in miR-30a-5p level at 20 uM by qRT-PCR analysis. The data set is classed as functional, cell-based. (In qPCR the cycle at which signal appears reflects the starting amount.)
Data set [5] relates to SK-HEP1. The experiment in a line: Antiproliferative activity against human SK-HEP1 cells assessed as increase in miR-21-5p level at 20 uM by qRT-PCR analysis. It counts as functional, cell-based.
Data set [6] relates to SK-HEP1. Nature of the data set: Antiproliferative activity against human SK-HEP1 cells assessed as increase in miR-106b-5p level at 20 uM by qRT-PCR analysis. It counts as functional, cell-based.
Data set [7] concerns MHCC97. Nature of the data set: Antitumor activity against human MHCC97 cells xenografted in SCID mouse assessed as decrease in tumor size at 20 mg/kg, ip administered once every 3 days and measured after 10 days. It counts as functional, organism-based. The conditions noted are these: time 10.0 day. A general note: A xenograft is tissue or cells of one species grown in another, often human tumour cells in immunodeficient mice.

For data set [8], the system named is MHCC97. Nature of the data set: Antimetastatic activity against human MHCC97 cells xenografted in SCID mouse assessed as decrease in liver metastasis at 20 mg/kg, ip administered once every 3 days and measured after 10 days. The data set is classed as functional, organism-based. Particulars: time 10.0 day.
In data set [9] the test system is MHCC97. Nature of the data set: Antitumor activity in human MHCC97 cells xenografted in SCID mouse assessed as suppression of tumor growth at 20 mg/kg, ip administered once every 3 day for 30 days by bioluminescence analysis. The conditions noted are these: time 30.0 day. It counts as functional, organism-based.
Data set [10] has as its system SK-HEP1. Nature of the data set: Antiproliferative activity against human SK-HEP1 cells assessed as decrease in miR135a-5p level at 20 uM by qRT-PCR analysis. The data set is classed as functional, cell-based.
The subject of data set [11] is MHCC97. Nature of the data set: Antitumor activity in human MHCC97 cells xenografted in SCID mouse assessed as reduction in infiltration of inflammatory cells in left middle lobe of liver at 20 mg/kg, ip measured after 30 days by H and E staining based immunohistochemical analysis. It counts as functional, organism-based. Particulars: time 30.0 day.
Data set [12] has as its system SK-HEP1. The experiment in a line: Antiproliferative activity against human SK-HEP1 cells assessed as increase in miR-26a-5p level at 20 uM by qRT-PCR analysis. It counts as functional, cell-based.
Data set [13] has as its system SK-HEP1. Nature of the data set: Antiproliferative activity against human SK-HEP1 cells assessed as increase in miR-22-5p level at 20 uM by qRT-PCR analysis. It counts as functional, cell-based.
The target in data set [14] is DNA topoisomerase 2-beta (Homo sapiens) (UniProt Q02880). The experiment in a line: Binding affinity to TOP2B (unknown origin) at 30 uM incubated for 2 hrs by pull down assay.
DNA topoisomerase 2-beta (Homo sapiens), sequence (Q02880 whole entry): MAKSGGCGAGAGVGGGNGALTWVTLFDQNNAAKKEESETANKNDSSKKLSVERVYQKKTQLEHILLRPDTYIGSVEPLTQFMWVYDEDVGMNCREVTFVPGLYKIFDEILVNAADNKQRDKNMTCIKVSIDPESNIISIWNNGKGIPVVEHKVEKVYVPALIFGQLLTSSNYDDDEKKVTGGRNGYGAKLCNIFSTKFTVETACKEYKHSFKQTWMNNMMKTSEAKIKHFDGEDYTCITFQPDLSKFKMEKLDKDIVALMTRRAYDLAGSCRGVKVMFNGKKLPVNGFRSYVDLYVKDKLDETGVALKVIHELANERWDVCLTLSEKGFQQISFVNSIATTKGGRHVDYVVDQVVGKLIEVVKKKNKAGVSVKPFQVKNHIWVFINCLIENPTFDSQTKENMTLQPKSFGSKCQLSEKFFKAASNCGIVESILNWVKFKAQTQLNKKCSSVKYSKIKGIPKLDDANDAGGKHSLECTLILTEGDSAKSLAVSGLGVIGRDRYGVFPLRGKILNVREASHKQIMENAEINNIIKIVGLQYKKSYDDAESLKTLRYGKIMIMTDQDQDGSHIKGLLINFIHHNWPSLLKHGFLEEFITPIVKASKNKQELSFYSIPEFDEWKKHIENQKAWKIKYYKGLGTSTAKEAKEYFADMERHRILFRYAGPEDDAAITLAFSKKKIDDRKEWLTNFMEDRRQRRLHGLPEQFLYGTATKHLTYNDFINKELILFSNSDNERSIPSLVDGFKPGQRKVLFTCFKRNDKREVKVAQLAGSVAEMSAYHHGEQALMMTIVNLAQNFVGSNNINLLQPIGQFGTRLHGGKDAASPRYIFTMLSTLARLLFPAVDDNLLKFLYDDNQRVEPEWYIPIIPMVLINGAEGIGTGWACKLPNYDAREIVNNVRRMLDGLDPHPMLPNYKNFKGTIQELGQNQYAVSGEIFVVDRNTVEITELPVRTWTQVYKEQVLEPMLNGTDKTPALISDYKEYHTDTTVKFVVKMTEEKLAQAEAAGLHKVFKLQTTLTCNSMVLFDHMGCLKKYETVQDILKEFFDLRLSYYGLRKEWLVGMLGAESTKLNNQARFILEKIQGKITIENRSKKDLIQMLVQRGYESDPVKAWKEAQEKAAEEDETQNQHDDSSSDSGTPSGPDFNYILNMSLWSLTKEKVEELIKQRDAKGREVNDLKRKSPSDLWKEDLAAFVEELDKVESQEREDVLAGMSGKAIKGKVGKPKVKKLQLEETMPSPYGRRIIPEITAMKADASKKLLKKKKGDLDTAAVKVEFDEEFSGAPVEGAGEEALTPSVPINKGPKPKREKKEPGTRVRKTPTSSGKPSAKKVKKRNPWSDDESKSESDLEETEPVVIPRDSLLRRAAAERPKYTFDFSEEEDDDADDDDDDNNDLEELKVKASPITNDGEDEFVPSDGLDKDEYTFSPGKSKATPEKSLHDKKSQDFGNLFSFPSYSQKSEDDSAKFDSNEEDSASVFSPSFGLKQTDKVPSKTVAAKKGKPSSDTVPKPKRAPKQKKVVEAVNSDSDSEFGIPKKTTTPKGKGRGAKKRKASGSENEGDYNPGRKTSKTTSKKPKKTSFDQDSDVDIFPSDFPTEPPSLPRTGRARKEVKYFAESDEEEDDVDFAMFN
A further data set is filed under the species Homo sapiens. Nature of the data set: Binding affinity to PIWIL3 (unknown origin) at 30 uM incubated for 2 hrs by pull down assay.
The subject of data set [15] is SK-HEP1. The experiment in a line: Antiproliferative activity against human SK-HEP1 cells at 20 uM measured by crystal violet dye based colony formation assay. The data set is classed as functional, cell-based.
Data set [16] relates to SK-HEP1. The experiment in a line: Inhibition of cell migration in human SK-HEP1 cells assessed as reduction in cell migration at 20 uM measured after 12 hrs using crystal violet staining inverted microscope based transwell assay. The data set is classed as functional.
Data set [17] is described as follows: Toxicity in SCID mouse xenografted with human MHCC97 cells assessed as increase in body weight at 40 mg/kg, ip administered once every 3 day for 30 days. The data set is classed as organism-based. The conditions noted are these: in vivo, 720 h, time 30 day.
For data set [18], the system named is MHCC97. The experiment in a line: Antimetastatic activity against human MHCC97 cells xenografted in SCID mouse assessed as decrease in liver metastasis at 40 mg/kg, ip administered once every 3 days and measured after 10 days. Particulars: time 10.0 day. The data set is classed as functional, organism-based.
The next data set concerns Huh-7. Nature of the data set: Antiproliferative activity against human Huh-7 cells at 20 uM incubated for 24 hrs by alamar blue assay. The data set is classed as functional, cell-based.
Data set [19] deals with HeLa. Nature of the data set: Antiproliferative activity against human HeLa cells at 20 uM incubated for 24 hrs by alamar blue assay. The data set is classed as functional, cell-based.
The test system of a further data set is HepG2. Nature of the data set: Antiproliferative activity against human HepG2 cells at 20 uM incubated for 24 hrs by alamar blue assay. It counts as functional, cell-based.
Data set [20] has as its system SK-HEP1. The experiment in a line: Antiproliferative activity against human SK-HEP1 cells at 20 uM incubated for 24 hrs by alamar blue assay. It counts as functional, cell-based.
Data set [21] relates to MHCC97. The experiment in a line: Antiproliferative activity against human MHCC97 cells at 20 uM incubated for 24 hrs by alamar blue assay. It counts as functional, cell-based.

Calls of active or inactive are those of the source. The calls are words filed in the database; no cut-off is given here. Where only a bound is given, the exact number is not on record here.

The term IC50 denotes the concentration at which inhibition is half-maximal.

Take `COC(=O)c1cc2c(c(OC)c1-c1ccc(N(C)C(=O)CNC(=O)OC(C)(C)C)cc1)OCO2`: the figures for the IC50 (in [1]; with SK-HEP1 [2]) were 63.2 µM and 39.6 µM, respectively.

For the compound `COC(=O)c1cc2c(c(OC)c1-c1ccc(N(C)S(C)(=O)=O)cc1)OCO2`, the IC50 in data set [1] came to 75.9 µM; in the data set with SK-HEP1 [2] it was 47 µM.

For the compound `CNc1ccc(-c2c(C(=O)OC)cc3c(c2OC)OCO3)cc1Cl`, the IC50 came to 50.3 µM in data set [1] and 22.7 µM in the data set on SK-HEP1 [2].

On to `COc1c2c(cc(C(=O)Nc3ccccc3I)c1-c1ccc(N(C)C)cc1)OCO2`, for which the IC50 in data set [1] was 56.9 µM; in the data set on SK-HEP1 [2] it was 35.8 µM.

As for `CCn1cc(C(=O)O)c(=O)c2cc(F)c(N3CCNCC3)nc21` [ENOXACIN], the IC50 came to 25.8 µM in the data set on HeLa [3], 72.4 µM in data set [1] and 25 µM in the data set with SK-HEP1 [2]. Also, the outcome in the data set on SK-HEP1 [4], with MHCC97 [8] and in the data set on SK-HEP1 [10] was inactive. Besides, the result in the data set with SK-HEP1 [5], with SK-HEP1 [6], in the data set on MHCC97 [7], with MHCC97 [9], in the data set on MHCC97 [11] and with SK-HEP1 [12] was Active. In addition, the result with SK-HEP1 [13] was Active.

Take `COC(=O)c1cc2c(c(OC)c1-c1ccc(N(C)S(=O)(=O)c3ccccc3)cc1)OCO2`: the IC50 worked out at 19.5 µM in the data set on HeLa [3], 61.4 µM in data set [1] and 26.7 µM in the data set on SK-HEP1 [2].

As to `COC(=O)c1cc2c(c(OC)c1-c1ccc(N(C)S(=O)(=O)c3ccc(F)cc3)cc1)OCO2`, the IC50 was 67.9 µM in data set [1] and 31.7 µM in the data set on SK-HEP1 [2].

As for `COC(=O)c1cc2c(c(OC)c1-c1ccc(N(C)S(=O)(=O)c3ccc(Br)cc3)cc1)OCO2`, the IC50 in data set [1] was 62.4 µM; with SK-HEP1 [2], 28.7 µM.

For `COC(=O)c1cc2c(c(OC)c1-c1ccc(N(C)C(=O)CCCCCNC(=O)CCCC[C@@H]3SC[C@@H]4NC(=O)N[C@@H]43)cc1)OCO2`, the result (in [14]; in the data set listed under Homo sapiens) was inactive. Further, in the data set on SK-HEP1 [15], the result was Active. In the data set with SK-HEP1 [16], the inhibition result was “Active”.

As to `COC(=O)c1cc2c(c(OC)c1-c1ccc(N(C)C(=O)CN)cc1)OCO2`, the IC50 (in data set [1]; with SK-HEP1 [2]) was above 100 µM each time.

For the compound `CNC(=O)c1cc(Oc2ccc(NC(=O)Nc3ccc(Cl)c(C(F)(F)F)c3)cc2)ccn1` [SORAFENIB], the result in the data set on MHCC97 [7], with MHCC97 [18], with MHCC97 [9] and in the data set with MHCC97 [11] was Active. Moreover, the Activity result in data set [17] is on record as “Toxic”.

Turning to `COC(=O)c1cc2c(c(OC)c1-c1ccc(N(C)C(=O)[C@H](C)N)cc1)OCO2`, the IC50 in data set [1] worked out at 74.2 µM; in the data set with SK-HEP1 [2] it was 64.7 µM.

On to `CNc1ccc(-c2c(C(=O)OC)cc3c(c2OC)OCO3)cc1`, for which the figures for the IC50 (in the data set on HeLa [3]; in data set [1]; with SK-HEP1 [2]) were 15.6 µM, 67.2 µM and 24.4 µM, respectively. Further, the outcome in the data set on SK-HEP1 [15] was Active. In addition, the inhibition entry with SK-HEP1 [16] was “Active”.

With `COC(=O)c1cc2c(c(OC)c1-c1ccc(N(C)S(=O)(=O)c3ccc([N+](=O)[O-])cc3)cc1)OCO2`, the IC50 worked out at 69.3 µM in data set [1] and 34.2 µM in the data set on SK-HEP1 [2].

For `COC(=O)c1cc2c(c(OC)c1-c1ccc(N(C)C(=O)[C@H](C)NC(=O)OC(C)(C)C)cc1)OCO2`, the IC50 amounted to 59.5 µM in data set [1] and 40.9 µM in the data set on SK-HEP1 [2].

As to `COC(=O)c1cc2c(c(OC)c1-c1ccc(N(C)C(=O)c3ccccc3)cc1)OCO2`, the result in the data set on Huh-7, with HeLa [19], with HepG2, in the data set on SK-HEP1 [20] and in the data set on MHCC97 [21] was Active. The IC50 in the data set with HeLa [3] stood at 13 µM; in [1] it was 48.4 µM; in the data set on SK-HEP1 [2], 19.4 µM.

Regarding `COC(=O)c1cc2c(c(OC)c1-c1ccc(N(C)C)cc1)OCO2`, the IC50 in data set [1] is 68.5 µM; in the data set with SK-HEP1 [2] it was 29.9 µM.

In the case of `CCN(CC)CCNC(=O)c1cc2c(c(OC)c1-c1ccc(N(C)C)cc1)OCO2`, the IC50 (in [1]; in the data set with SK-HEP1 [2]) was above 100 µM in each case.

Turning to `COc1c2c(cc(C(=O)Nc3ccccc3)c1-c1ccc(N(C)C)cc1)OCO2`, the IC50 in data set [1] came to 58.5 µM; with SK-HEP1 [2] it was 38.4 µM.

As to `COC(=O)c1cc2c(c(OC)c1-c1ccc(N(C)C(=O)CN(C)C(=O)OC(C)(C)C)cc1)OCO2`, the results for the IC50 (in [1]; with SK-HEP1 [2]) were above 100 µM and 89.7 µM, respectively.

Take `CNCC(=O)N(C)c1ccc(-c2c(C(=O)OC)cc3c(c2OC)OCO3)cc1`: the IC50 (in [1]; with SK-HEP1 [2]) was above 100 µM in each case.

For the compound `COc1cccc(NC(=O)c2cc3c(c(OC)c2-c2ccc(N(C)C)cc2)OCO3)c1`, the IC50 in [1] was 64.4 µM; in the data set on SK-HEP1 [2], 31.6 µM.

`COc1c2c(cc(C(=O)NCc3ccccc3)c1-c1ccc(N(C)C)cc1)OCO2`: the half-maximal inhibitory concentration (IC50) worked out at 21.9 µM in the data set on HeLa [3], 56.4 µM in data set [1] and 23.6 µM with SK-HEP1 [2].

For the origin of these results see ChEMBL document CHEMBL5038591, “Identification of a Novel TAR RNA-Binding Protein 2 Modulator with Potential Therapeutic Activity against Hepatocellular Carcinoma” (J Med Chem, 2021).
